In the experiment the target is T1, JMJD2C (Homo sapiens, UniProt Q9H3R0).
T1 construct: purchased BPS Bioscience 50105
T1 sequence (Q9H3R0 2-372): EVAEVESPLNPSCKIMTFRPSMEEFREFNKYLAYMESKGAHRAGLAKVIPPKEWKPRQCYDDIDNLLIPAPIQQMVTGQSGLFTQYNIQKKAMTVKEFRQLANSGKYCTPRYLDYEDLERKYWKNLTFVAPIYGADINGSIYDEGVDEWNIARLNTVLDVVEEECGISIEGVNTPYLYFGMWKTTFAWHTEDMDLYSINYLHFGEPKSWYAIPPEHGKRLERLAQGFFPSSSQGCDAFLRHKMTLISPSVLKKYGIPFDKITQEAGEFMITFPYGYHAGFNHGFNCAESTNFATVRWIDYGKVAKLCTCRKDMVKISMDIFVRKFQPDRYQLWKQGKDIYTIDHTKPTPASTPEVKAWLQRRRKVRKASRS
The experiment in a line: JMJD2C in vitro enzyme inhibition assay (TR-FRET). Format: biochemical. The method, boiled down:
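Baculovirus-expressed human JMJD2C (AA 2-372) at 0.3 nM demethylated 300 nM biotin-H3K9me3 peptide with 2 μM alpha-ketoglutarate in HEPES pH 7.3 containing ascorbate and Fe(II), 30 min at room temperature. EDTA-stopped product was read by TR-FRET with Eu-anti-H3K9me2 and streptavidin-APC; 665/615 ratios from 11-point dilutions gave IC50.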

As for `O=S(=O)(C1CC1)N1CCCC(n2cc(Oc3nc(O)c4ccncc4n3)cn2)C1` (stereo in doubt) [Example 151, 2-({1-[(3S)-1-(cyclopropanesulfonyl)piperidin-3-yl]-1H-pyrazol-4-yl}oxy)pyrido[3,4-d]pyrimidin-4-ol], the IC50 is at most 100 nM.

The molecule `Oc1nc(Oc2cnn(C3CCCN(c4ccc(F)cc4)C3)c2)nc2cnccc12` (stereo in doubt) [Example 169, 2-({1-[(3R)-1-(4-fluorophenyl)piperidin-3-yl]-1H-pyrazol-4-yl}oxy)pyrido[3,4-d]pyrimidin-4-ol] registered an IC50 of at most 100 nM.

In turn, `Oc1nc(OCCC(F)(F)F)nc2cnccc12` [Example 13, 2-(3,3,3-trifluoropropoxy)pyrido[3,4-d]pyrimidin-4-ol] returned an IC50 of 100 to 1000 nM.

`CC(C)COc1nc(O)c2ccncc2n1` [Example 14, 2-(2-methylpropoxy)pyrido[3,4-d]pyrimidin-4-ol] displayed an IC50 of 100 to 1000 nM.

Molecule `CC(C)CCOc1nc(O)c2ccncc2n1` [Example 15, 2-(3-methylbutoxy)pyrido[3,4-d]pyrimidin-4-ol] yielded an IC50 of 100 to 1000 nM.

Turning to `CCC(C)COc1nc(O)c2ccncc2n1` (stereo not drawn) [Example 16, 2-(2-methylbutoxy)pyrido[3,4-d]pyrimidin-4-ol], the IC50 was in the range of 100 to 1000 nM.

Consider `CC(COc1nc(O)c2ccncc2n1)c1ccccc1` (stereo not drawn) [Example 17, 2-(2-phenylpropoxy)pyrido[3,4-d]pyrimidin-4-ol], for which the IC50 is 100 to 1000 nM.

In turn, `Oc1nc(OCCc2ccccc2)nc2cnccc12` [Example 18, 2-(2-phenylethoxy)pyrido[3,4-d]pyrimidin-4-ol] came in with an IC50 of 100 to 1000 nM.

For the molecule `CC(Cc1ccccc1)Oc1nc(O)c2ccncc2n1` (stereo not drawn) [Example 19, 2-(1-phenylpropan-2-yloxy)pyrido[3,4-d]pyrimidin-4-ol], the IC50 is 1000 to 10000 nM.

Consider `Oc1nc(OCCCC(F)(F)F)nc2cnccc12` [Example 20, 2-(4,4,4-trifluorobutoxy)pyrido[3,4-d]pyrimidin-4-ol], for which the IC50 fell in the range of 100 to 1000 nM.

`CN(C)CCCOc1nc(O)c2ccncc2n1` [Example 21, 2-[3-(dimethylamino)propoxy]pyrido[3,4-d]pyrimidin-4-ol]: the IC50 is 100 to 1000 nM.

As to `COCCOc1nc(O)c2ccncc2n1` [Example 22, 2-(2-methoxyethoxy)pyrido[3,4-d]pyrimidin-4-ol], the 50% inhibitory concentration (IC50) lay in the range of 100 to 1000 nM.

In turn, `Cn1cnc(-c2nccc3c(O)nc(OCc4ccccc4C(F)(F)F)nc23)c1` [Example 107, 8-(1-methyl-1H-imidazol-4-yl)-2-{[2-(trifluoromethyl)phenyl]methoxy}pyrido[3,4-d]pyrimidin-4-ol] gave an IC50 of 100 to 1000 nM.

The molecule `Cn1cnc(-c2nccc3c(O)nc(O[C@H](c4ccccc4)C(F)(F)F)nc23)c1` [Example 108, 8-(1-methyl-1H-imidazol-4-yl)-2-[(1R)-2,2,2-trifluoro-1-phenylethoxy]pyrido[3,4-d]pyrimidin-4-ol] displayed an IC50 of 100 to 1000 nM.

On to `Cn1cnc(-c2nccc3c(O)nc(O[C@@H](c4ccccc4)C(F)(F)F)nc23)c1` [Example 109, 8-(1-methyl-1H-imidazol-4-yl)-2-[(1S)-2,2,2-trifluoro-1-phenylethoxy]pyrido[3,4-d]pyrimidin-4-ol], for which the IC50 was 100 to 1000 nM.

Consider `CCC(Oc1nc(O)c2ccnc(-c3cn(C)cn3)c2n1)C(F)(F)F` (stereo not drawn) [Example 110, 8-(1-methyl-1H-imidazol-4-yl)-2-[(1,1,1-trifluorobutan-2-yl)oxy]pyrido[3,4-d]pyrimidin-4-ol], for which the half-maximal inhibitory concentration (IC50) lay in the range of 1000 to 10000 nM.

In turn, `Cn1cnc(-c2nccc3c(O)nc(OCc4ccc(C(F)(F)F)cc4)nc23)c1` [Example 111, 8-(1-methyl-1H-imidazol-4-yl)-2-{[4-(trifluoromethyl)phenyl]methoxy}pyrido[3,4-d]pyrimidin-4-ol] showed an IC50 of 100 to 1000 nM.

`Cn1cnc(-c2nccc3c(O)nc(OCc4ccc(Cl)cc4)nc23)c1` [Example 112, 2-[(4-chlorophenyl)methoxy]-8-(1-methyl-1H-imidazol-4-yl)pyrido[3,4-d]pyrimidin-4-ol] gave an IC50 of 100 to 1000 nM.

Take `Cn1cnc(-c2nccc3c(O)nc(Oc4ccc(Cl)c(Cl)c4)nc23)c1` [Example 113, 2-(3,4-dichlorophenoxy)-8-(1-methyl-1H-imidazol-4-yl)pyrido[3,4-d]pyrimidin-4-ol]: the IC50 was at most 100 nM.

The molecule `Oc1nc(Oc2ccc(Cl)c(Cl)c2)nc2cnccc12` [Example 114, 2-(3,4-dichlorophenoxy)pyrido[3,4-d]pyrimidin-4-ol] returned an IC50 of at most 100 nM.

In turn, `CCC(c1ccccc1)n1cc(Oc2nc(O)c3ccncc3n2)cn1` (stereo not drawn) [Example 115, 2-{[1-(1-phenylpropyl)-1H-pyrazol-4-yl]oxy}pyrido[3,4-d]pyrimidin-4-ol] returned an IC50 of at most 100 nM.

Molecule `Oc1nc(Oc2cnn(C(c3ccccc3)C3CC3)c2)nc2cnccc12` (stereo not drawn) [Example 116, 2-({1-[cyclopropyl(phenyl)methyl]-1H-pyrazol-4-yl}oxy)pyrido[3,4-d]pyrimidin-4-ol] had an IC50 of at most 100 nM.

Consider `C[C@H](c1ccccc1)n1cc(Oc2nc(O)c3ccncc3n2)cn1` [Example 117, 2-({1-[(1R)-1-phenylethyl]-1H-pyrazol-4-yl}oxy)pyrido[3,4-d]pyrimidin-4-ol], for which the IC50 was at most 100 nM.

`C[C@@H](c1ccccc1)n1cc(Oc2nc(O)c3ccncc3n2)cn1` [Example 118, 2-({1-[(1S)-1-phenylethyl]-1H-pyrazol-4-yl}oxypyrido) [3,4-d]pyrimidin-4-ol] gave an IC50 of at most 100 nM.

Take `C[C@H](c1ccccc1F)n1cc(Oc2nc(O)c3ccncc3n2)cn1` [Example 119, 2-({1-[(1R)-1-(2-fluorophenyl)ethyl]-1H-pyrazol-4-yl}oxy)pyrido[3,4-d]pyrimidin-4-ol]: the IC50 was at most 100 nM.

Turning to `C[C@@H](c1ccccc1F)n1cc(Oc2nc(O)c3ccncc3n2)cn1` [Example 120, 2-({1-[(1s)-1-(2-fluorophenyl)ethyl]-1H-pyrazol-4-yl}oxy)pyrido[3,4-d]pyrimidin-4-ol], the half-maximal inhibitory concentration (IC50) is at most 100 nM.

The molecule `Oc1nc(Oc2cnn(Cc3ccccc3Cl)c2)nc2cnccc12` [Example 121, 2-({1-[(2-chlorophenyl)methyl]-1H-pyrazol-4-yl}oxy)pyrido[3,4-d]pyrimidin-4-ol] gave an IC50 of at most 100 nM.

`Oc1nc(Oc2cnn(Cc3cccc(Cl)c3)c2)nc2cnccc12` [Example 122, 2-({1-[(3-chlorophenyl)methyl]-1H-pyrazol-4-yl}oxy)pyrido[3,4-d]pyrimidin-4-ol] registered a half-inhibitory concentration (IC50) of at most 100 nM.

Consider `Oc1nc(Oc2cnn(C3CCN(Cc4ccccc4)CC3)c2)nc2cnccc12` [Example 123, 2-{[1-(1-benzylpiperidin-4-yl)-1H-pyrazol-4-yl]oxy}pyrido[3,4-d]pyrimidin-4-ol], for which the IC50 is at most 100 nM.

Take `Oc1nc(Oc2cnn(CCN3CCOCC3)c2)nc2cnccc12` [Example 124, 2-({1-[2-(morpholin-4-yl)ethyl]-1H-pyrazol-4-yl}oxy)pyrido[3,4-d]pyrimidin-4-ol]: the IC50 is at most 100 nM.

On to `Oc1nc(Oc2cnn([C@@H]3CCNC3)c2)nc2cnccc12` [Example 125, 2-({1-[(3R)-pyrrolidin-3-yl]-1H-pyrazol-4-yl}oxy)pyrido[3,4-d]pyrimidin-4-ol], for which the IC50 was at most 100 nM.

Take `CCS(=O)(=O)N1CC[C@@H](n2cc(Oc3nc(O)c4ccncc4n3)cn2)C1` [Example 126, 2-({1-[(3R)-1-(ethanesulfonyl)pyrrolidin-3-yl]-1H-pyrazol-4-yl}oxy)pyrido[3,4-d]pyrimidin-4-ol]: the half-inhibitory concentration (IC50) was at most 100 nM.

`O=S(=O)(C1CC1)N1CC[C@@H](n2cc(Oc3nc(O)c4ccncc4n3)cn2)C1` [Example 127, 2-({1-[(3R)-1-(cyclopropanesulfonyl)pyrrolidin-3-yl]-1H-pyrazol-4-yl}oxy)pyrido[3,4-d]pyrimidin-4-ol] displayed an IC50 of at most 100 nM.

With `O=S(=O)(c1ccccc1)N1CC[C@@H](n2cc(Oc3nc(O)c4ccncc4n3)cn2)C1` [Example 128, 2-({1-[(3R)-1-(benzenesulfonyl)pyrrolidin-3-yl]-1H-pyrazol-4-yl}oxy)pyrido[3,4-d]pyrimidin-4-ol], the IC50 was at most 100 nM.

On to `CC(=O)N1CC[C@@H](n2cc(Oc3nc(O)c4ccncc4n3)cn2)C1` [Example 129, 1-[(3R)-3-[4-({4-hydroxypyrido[3,4-d]pyrimidin-2-yl}oxy)-1H-pyrazol-1-yl]pyrrolidin-1-yl]ethan-1-one], for which the IC50 was at most 100 nM.

`N#CCC(=O)N1CC[C@@H](n2cc(Oc3nc(O)c4ccncc4n3)cn2)C1` [Example 130, 3-[(3R)-3-[4-({4-hydroxypyrido[3,4-d]pyrimidin-2-yl}oxy)-1H-pyrazol-1-yl]pyrrolidin-1-yl]-3-oxopropanenitrile]: the IC50 is at most 100 nM.

`O=C(C1CC1)N1CC[C@@H](n2cc(Oc3nc(O)c4ccncc4n3)cn2)C1` [Example 131, 2-({1-[(3R)-1-cyclopropanecarbonylpyrrolidin-3-yl]-1H-pyrazol-4-yl}oxy)pyrido[3,4-d]pyrimidin-4-ol] had an IC50 of at most 100 nM.

As to `O=C(c1ccccc1)N1CC[C@@H](n2cc(Oc3nc(O)c4ccncc4n3)cn2)C1` [Example 132, 2-({1-[(3R)-1-benzoylpyrrolidin-3-yl]-1H-pyrazol-4-yl}oxy)pyrido[3,4-d]pyrimidin-4-ol], the IC50 was at most 100 nM.

In turn, `Oc1nc(Oc2cnn([C@@H]3CCN(Cc4ccccc4)C3)c2)nc2cnccc12` [Example 133, 2-({1-[(3R)-1-benzylpyrrolidin-3-yl]-1H-pyrazol-4-yl}oxy)pyrido[3,4-d]pyrimidin-4-ol] displayed an IC50 of at most 100 nM.
